# In patent US11674959B2, “Methods for identifying and preparing pharmaceutical agents for activating Tie1 and/or Tie2 receptors” (The Johns Hopkins University, priority 2017, dated 2023):
# Assays:
# [1] = tested on: Tie2; assay: Western blot of MEC lysates, Ang1/2 signaling: Tie2 phosphorylation; format: cell-based, human
# Method: (§1) To investigate the effects of the integrin inhibitor AXT107 on Tie2 signaling, confluent monolayers of microvascular endothelial cells (MECs) on fibronectin-coated dishes were treated with various concentrations of AXT107 followed by exposure to the Tie2 ligands Ang1 or Ang2.
# (§2) Human dermal microvascular endothelial cells (Lonza) were maintained at 37° C. and 5% CO2 in EBM-2MV medium (Lonza) and used between passages two through seven. Where applicable, cells were serum starved in EBM-2 medium (Lonza) with no supplements. For FITC-Dextran permeability assays phenol red-free media were used to avoid auto-fluorescence. AXT107 were manufactured at New England Peptide by solid state synthesis, lyophilized, and dissolved in 100% DMSO.
# For Ang1/2 signaling investigations, cell culture dishes (10 cm diameter) were coated with 5 μg/ml fibronectin (FN1; Sigma-Aldrich, St. Louis, Mo.) for two hours at 37° C. The FN1 solution was then removed by aspiration and 5×10^6 microvascular endothelial cells (MECs; Lonza, Walkersville, Md.) were plated in EGM-2MV media (Lonza) and cultured for forty-eight hours at 37° C. The cells were then serum starved for sixteen hours in serum-free EGM-2 base media (Lonza). AXT107 (0-100 μM, as indicated) was subsequently added to each culture and incubated for seventy-five minutes at 37° C. The cultures were then treated with 1 mM sodium vanadate (New England Biolabs, Ipswich, Mass.) for fifteen minutes to enhance the phospho-Tie2 signal followed by stimulation with 200 ng/ml angiopoietin (R&D Systems, Minneapolis, Minn.) for an additional fifteen minutes. The cells were then transferred to ice, washed twice with ice cold Dulbecco's phosphate-buffered saline (dPBS) containing Ca^2+ and Mg^2+, and collected by scraping in 500 μl of 1× Blue Loading Buffer (Cell Signaling, Danvers, Mass.). Lysate samples were then sonicated, boiled, and resolved by SDS-PAGE. Specific proteins were identified by Western blot, using the following primary antibodies: Cell Signaling—phospho-Tie2 (Y992) (Cat #: 4221), Tie2 (Cat #: 7403), phospho-Stat3 (Y705) (Cat #: 4113), Stat3 (Cat #: 4904), phospho-Akt (S473) (Cat #: 4058), Akt (Cat #: 9272), phospho-p44/42 MAPK (T202/Y204) (Cat #: 4370), p44/42 MAPK (Cat #: 4695); BD Transduction Laboratories—β1 integrin (Cat #: 610467); Millipore—α5 integrin (Cat #: AB1928) and detected with HRP-conjugated goat anti-rabbit and sheep anti-mouse secondary antibodies (GE healthcare).
# [2] = tested on: STAT3; assay: Western blot of MEC lysates: STAT3 phosphorylation; format: cell-based, human; conditions: Ang2 and AXT107 treatment
# Method: as §1
# as §2, with “AXT107 were manufactured at New England Peptide by solid state synthesis, lyophilized, and dissolved in 100% DMSO.” left out
# For Ang1/2 signaling investigations, cell culture dishes (10 cm diameter) were coated with 5 μg/ml fibronectin (FN1; Sigma-Aldrich, St. Louis, Mo.) for two hours at 37° C. […] Specific proteins were identified by Western blot, using the following primary antibodies: Cell Signaling—phospho-Tie2 (Y992) (Cat #: 4221), Tie2 (Cat #: 7403), phospho-Stat3 (Y705) (Cat #: 4113), Stat3 (Cat #: 4904), phospho-Akt (S473) (Cat #: 4058), Akt (Cat #: 9272), phospho-p44/42 MAPK (T202/Y204) (Cat #: 4370), p44/42 MAPK (Cat #: 4695); BD Transduction Laboratories—β1 integrin (Cat #: 610467); Millipore—α5 integrin (Cat #: AB1928) and detected with HRP-conjugated goat anti-rabbit and sheep anti-mouse secondary antibodies (GE healthcare).
# [3] = tested on: Tie2; assay: Tie2 immunoprecipitation from fractionated MEC lysates, blotted for phospho-Tie2; format: cell-based, human; conditions: Ang2 with or without AXT107; soluble vs insoluble fractions
# Method: Next, experiments were performed to determine whether or not relocation of Tie2 to the insoluble fraction was important for Tie2's activation by Ang2. Tie2 was immunoprecipitated from fractionated MEC lysates exposed to Ang2 with or without AXT107 and then immunoblotted for phospho-Tie2.
# (§3) The isolation of Triton X-100 soluble and insoluble fractions was performed using modifications to previously-described procedures (see, e.g., Lampugnani et al., J Cell Biol. 1995; 129(1):203-217). FN1-coated six-well plates were seeded with 2.5×10^6 cells and cultured for forty-eight hours, as described above. The cultures were then serum starved for ninety minutes in EBM-2 media, treated with 100 μM AXT107 or DMSO vehicle, and fifteen minutes with 1 mM sodium vanadate. The cells were then stimulated with either 100 ng/ml VEGFA, 400 ng/ml Ang2, or PBS for fifteen minutes. The plates were then transferred to ice and washed twice with cold dPBS containing Ca^2+ and Mg^2+ and twice with EBM-2 media. The media was then removed and the cells incubated for thirty minutes on ice, at 4° C. in 200 μl of Triton X-100 extraction buffer (10 mM Tris-HCl, pH 7.5; 150 mM NaCl; 2 mM CaCl2; 1% NP-40; 1% […]; and a protease inhibitor cocktail (Cell Signaling, Cat #: 5871)) with occasional agitation. […] Samples were analyzed by western blot as described above. […]
# [4] = biological target: T1, Tie2 / α5 integrin (Homo sapiens, UniProt P08648); assay: Tie2 immunoprecipitation from fractionated lysates, blotted for α5 integrin; format: cell-based; conditions: peptide-treated insoluble fraction; with 200 ng/ml Ang2 or no growth factor
# T1 construct: host or cells: human dermal microvascular endothelial cells (MECs)
# Method: Finally, it was determined whether or not the α5 integrin subunit remains complexed with Tie2 following its disassociation with β1 integrin.
# as §3, with “agitation. The extraction buffer was gently collected and centrifuged at 12,000×g for five minutes.” for “agitation.”
# [5] = biological target: integrin α5β1 (Homo sapiens, UniProt P05556+P08648); conditions: Lee et al. 2014; Lima et al. 2017; cited from earlier work
# integrin α5β1, sequence (P08648 42-1049): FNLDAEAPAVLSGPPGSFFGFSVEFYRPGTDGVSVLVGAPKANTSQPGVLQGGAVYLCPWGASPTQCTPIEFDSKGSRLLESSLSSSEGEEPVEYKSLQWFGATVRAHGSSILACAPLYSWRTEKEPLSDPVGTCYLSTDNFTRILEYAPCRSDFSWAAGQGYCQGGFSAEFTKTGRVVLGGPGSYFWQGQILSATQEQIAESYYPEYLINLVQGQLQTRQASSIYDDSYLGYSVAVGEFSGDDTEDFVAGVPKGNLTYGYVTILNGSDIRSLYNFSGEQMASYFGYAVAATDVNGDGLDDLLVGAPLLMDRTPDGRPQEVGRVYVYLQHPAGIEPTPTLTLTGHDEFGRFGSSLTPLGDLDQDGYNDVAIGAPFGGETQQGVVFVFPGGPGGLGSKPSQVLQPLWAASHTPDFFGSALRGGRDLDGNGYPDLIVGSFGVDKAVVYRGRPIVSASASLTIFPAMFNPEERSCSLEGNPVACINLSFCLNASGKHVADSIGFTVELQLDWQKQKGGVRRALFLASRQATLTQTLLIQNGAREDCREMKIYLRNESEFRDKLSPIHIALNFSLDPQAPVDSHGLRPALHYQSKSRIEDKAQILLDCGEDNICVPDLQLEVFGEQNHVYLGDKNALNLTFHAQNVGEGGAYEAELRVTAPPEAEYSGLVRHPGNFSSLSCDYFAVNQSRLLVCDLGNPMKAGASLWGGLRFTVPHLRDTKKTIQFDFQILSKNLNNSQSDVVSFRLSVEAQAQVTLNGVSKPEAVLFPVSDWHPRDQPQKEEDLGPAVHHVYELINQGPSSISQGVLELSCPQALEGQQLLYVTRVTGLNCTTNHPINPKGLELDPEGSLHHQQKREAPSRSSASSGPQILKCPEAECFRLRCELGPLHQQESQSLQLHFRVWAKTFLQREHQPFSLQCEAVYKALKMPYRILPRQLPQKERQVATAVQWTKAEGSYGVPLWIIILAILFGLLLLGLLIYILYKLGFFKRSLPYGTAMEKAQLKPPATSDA
# integrin α5β1, sequence (P05556 21-798): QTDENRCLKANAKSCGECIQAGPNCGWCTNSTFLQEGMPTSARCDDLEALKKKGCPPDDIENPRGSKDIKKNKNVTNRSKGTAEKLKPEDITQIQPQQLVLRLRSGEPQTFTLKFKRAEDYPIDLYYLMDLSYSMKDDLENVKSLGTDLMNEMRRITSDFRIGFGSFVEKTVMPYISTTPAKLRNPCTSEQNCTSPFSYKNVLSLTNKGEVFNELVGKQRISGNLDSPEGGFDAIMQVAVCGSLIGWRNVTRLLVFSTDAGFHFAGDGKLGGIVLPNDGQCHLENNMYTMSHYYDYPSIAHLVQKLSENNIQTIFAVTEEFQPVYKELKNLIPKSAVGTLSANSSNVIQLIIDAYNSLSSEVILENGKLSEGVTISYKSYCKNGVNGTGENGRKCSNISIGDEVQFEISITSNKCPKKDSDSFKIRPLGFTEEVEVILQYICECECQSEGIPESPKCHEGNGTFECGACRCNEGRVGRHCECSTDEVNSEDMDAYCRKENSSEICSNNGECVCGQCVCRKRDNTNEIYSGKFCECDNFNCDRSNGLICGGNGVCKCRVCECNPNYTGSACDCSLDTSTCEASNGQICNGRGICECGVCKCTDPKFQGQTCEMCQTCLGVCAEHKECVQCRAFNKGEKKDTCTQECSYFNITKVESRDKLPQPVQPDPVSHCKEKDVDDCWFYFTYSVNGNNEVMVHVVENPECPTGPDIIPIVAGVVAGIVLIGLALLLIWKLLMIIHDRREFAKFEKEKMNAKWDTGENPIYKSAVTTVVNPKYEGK
# T1 sequence (P08648 42-894 limits assumed): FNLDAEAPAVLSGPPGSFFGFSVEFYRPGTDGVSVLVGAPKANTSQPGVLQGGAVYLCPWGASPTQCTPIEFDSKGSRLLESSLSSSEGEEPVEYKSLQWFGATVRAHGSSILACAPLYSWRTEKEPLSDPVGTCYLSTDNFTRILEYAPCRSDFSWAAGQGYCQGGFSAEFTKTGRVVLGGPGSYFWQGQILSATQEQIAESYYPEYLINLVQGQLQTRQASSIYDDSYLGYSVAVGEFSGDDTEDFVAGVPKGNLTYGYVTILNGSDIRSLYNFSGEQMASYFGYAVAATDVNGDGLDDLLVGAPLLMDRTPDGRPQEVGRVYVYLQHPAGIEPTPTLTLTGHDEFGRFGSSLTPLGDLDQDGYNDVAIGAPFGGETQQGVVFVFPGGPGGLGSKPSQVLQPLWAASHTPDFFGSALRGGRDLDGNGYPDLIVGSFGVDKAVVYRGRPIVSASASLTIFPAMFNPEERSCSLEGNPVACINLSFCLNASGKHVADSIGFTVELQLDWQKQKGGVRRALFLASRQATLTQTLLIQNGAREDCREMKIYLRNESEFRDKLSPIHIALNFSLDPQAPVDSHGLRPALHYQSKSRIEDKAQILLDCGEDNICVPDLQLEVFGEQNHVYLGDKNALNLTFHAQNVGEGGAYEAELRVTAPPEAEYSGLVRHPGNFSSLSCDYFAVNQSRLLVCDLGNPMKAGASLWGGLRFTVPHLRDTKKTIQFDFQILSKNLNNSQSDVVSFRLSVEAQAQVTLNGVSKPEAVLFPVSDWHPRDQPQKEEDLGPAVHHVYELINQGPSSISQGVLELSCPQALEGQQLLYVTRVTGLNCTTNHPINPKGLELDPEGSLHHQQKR
# T1 sequence (P08648 895-1049 limits assumed): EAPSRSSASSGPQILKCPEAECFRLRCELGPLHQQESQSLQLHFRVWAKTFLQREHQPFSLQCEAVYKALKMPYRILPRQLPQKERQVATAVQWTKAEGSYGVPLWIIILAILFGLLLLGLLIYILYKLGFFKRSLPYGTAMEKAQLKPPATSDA
# T1 sequence (Q02763 23-1124 partner): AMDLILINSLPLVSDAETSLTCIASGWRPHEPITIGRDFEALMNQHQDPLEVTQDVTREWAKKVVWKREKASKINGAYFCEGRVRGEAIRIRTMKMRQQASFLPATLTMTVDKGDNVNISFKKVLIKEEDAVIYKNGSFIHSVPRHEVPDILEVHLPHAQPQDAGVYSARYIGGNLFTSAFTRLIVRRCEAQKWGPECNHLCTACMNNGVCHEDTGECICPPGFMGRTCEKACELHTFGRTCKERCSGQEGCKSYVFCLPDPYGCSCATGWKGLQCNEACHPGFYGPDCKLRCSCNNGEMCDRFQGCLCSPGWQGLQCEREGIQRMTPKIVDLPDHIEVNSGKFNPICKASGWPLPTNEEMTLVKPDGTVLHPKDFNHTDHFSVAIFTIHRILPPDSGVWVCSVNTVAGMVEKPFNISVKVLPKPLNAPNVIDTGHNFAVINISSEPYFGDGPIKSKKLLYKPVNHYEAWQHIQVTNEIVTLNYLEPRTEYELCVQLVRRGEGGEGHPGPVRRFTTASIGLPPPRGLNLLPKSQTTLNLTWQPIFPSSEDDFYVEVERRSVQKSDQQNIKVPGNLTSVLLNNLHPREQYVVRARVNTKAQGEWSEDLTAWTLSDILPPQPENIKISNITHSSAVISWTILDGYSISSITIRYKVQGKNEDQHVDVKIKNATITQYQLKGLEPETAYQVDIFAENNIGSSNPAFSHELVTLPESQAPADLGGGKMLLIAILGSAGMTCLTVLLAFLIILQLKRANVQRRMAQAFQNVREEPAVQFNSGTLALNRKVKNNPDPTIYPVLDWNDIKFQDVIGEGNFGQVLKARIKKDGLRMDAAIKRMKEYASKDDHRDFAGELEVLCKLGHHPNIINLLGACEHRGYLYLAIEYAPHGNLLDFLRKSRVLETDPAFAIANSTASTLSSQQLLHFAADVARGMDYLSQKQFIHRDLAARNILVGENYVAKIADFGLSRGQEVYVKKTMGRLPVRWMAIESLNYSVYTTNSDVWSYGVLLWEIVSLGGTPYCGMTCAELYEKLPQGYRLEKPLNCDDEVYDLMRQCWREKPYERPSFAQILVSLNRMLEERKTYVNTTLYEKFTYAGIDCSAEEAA
sequence,measurement,setting,value
LRRFSTAPFAFIDINDVINF [AXT107],Tie2 phosphorylation,[1]; AXT107 (0-100 μM) in combination with 200 ng/ml Ang2,"significant, dose-dependent increase in Tie2 phosphorylation"
same,Influence on Ang1 activity (Tie2 phosphorylation),"[1]; MECs on fibronectin, AXT107 then Ang1, data not shown",did not significantly influence Ang1 activity
same,Phosphorylation by peptide alone,[1]; absence of either ligand,phosphorylation was not induced by peptide alone
same,Total protein levels of Tie2 and the downstream targets,[1]; data not shown,remained unchanged
same,STAT3 phosphorylation,[2],also increased
same,Tie2 phosphorylation by fraction,[3],phosphorylation was observed only in the insoluble fractions of peptide-treated samples
same,α5 integrin complexed with Tie2,[4],"α5 integrin was observed in the peptide-treated, insoluble fraction following immunoprecipitation of Tie2"
same,Binding to integrin α5β1,[5],binds tightly
